The subject of series [1] is HIV. Kind of series: HIV in vitro tests (Table 1). The conditions noted are these: HIV in vitro tests; read-out: EC50. Type of series: cell-based.
Series [2] concerns the target T1, SARS-CoV-2 main protease (Severe acute respiratory syndrome coronavirus 2, UniProt P0DTD1).
T1 construct: also MProtease (SARS-CoV-2 main protease)
Particulars: auto dock; cited from earlier work.

Series [3] has as its target T2, Mpro (Severe acute respiratory syndrome coronavirus 2, UniProt P0DTD1).
T2 construct: also MProtease (SARS-CoV-2 main protease)
Particulars: Mpro and substrate, 40 min, 384 well; cited from earlier work.

Series [4] deals with COVID-19. The conditions noted are these: after one month; control arm 12.8%, difference not statistically significant; cited from earlier work.
For series [5], the system named is Huh7. The conditions noted are these: Huh7, 4 days, CellTiter Glo, reference compound; cited from earlier work. A general note: ATP-based viability assays read luminescence as a measure of living cells.
Series [6] concerns HCoV. The conditions noted are these: Huh7, 4 days, 96 well, reference compound; cited from earlier work.

Usually EC50 stands for the concentration that produces a half-maximal response. With `CC(C)(C)NC(=O)[C@@H]1C[C@@H]2CCCC[C@@H]2CN1C[C@@H](O)[C@H](Cc1ccccc1)NC(=O)[C@H](CC(N)=O)NC(=O)c1ccc2ccccc2n1` [Saquinovir], the EC50 in series [1] is 1.2 nM.

With `CC(C)c1nc(CN(C)C(=O)N[C@H](C(=O)N[C@@H](Cc2ccccc2)C[C@H](O)[C@H](Cc2ccccc2)NC(=O)OCc2cncs2)C(C)C)cs1` [Ritonavir], in series [2], the “Dissociation Constant” value was 2.5E−06, the SMINA score is on record as −7.7 and the Vina score is listed as −7.5.

Regarding `CC(C)(C)NC(=O)[C@@H]1CN(Cc2cccnc2)CCN1C[C@@H](O)C[C@@H](Cc1ccccc1)C(=O)N[C@H]1c2ccccc2C[C@H]1O` [Indinivir], the EC50 in series [1] came to 5 nM.

With `Nc1ccn([C@H]2CC[C@@H](CO)O2)c(=O)n1` [ddc], the EC50 in series [1] was 1 nM.

For the compound `Cc1ccnc2c1NC(=O)c1cccnc1N2C1CC1` [Neverepin], the EC50 in series [1] came to 48 nM.

As for `Cc1cccc(C)c1OCC(=O)N[C@@H](Cc1ccccc1)[C@@H](O)C[C@H](Cc1ccccc1)NC(=O)[C@H](C(C)C)N1CCCNC1=O` [Lopinavir], in series [2], the “Dissociation Constant” value was 3.4E−06, the SMINA score is −7.5 and the Vina score is −7.4. Also, the EC50 in series [3] is 108000 nM.

Regarding `CCC(CC)COC(=O)[C@H](C)N[P@](=O)(OC[C@H]1O[C@@](C#N)(c2ccc3c(N)ncnn23)[C@H](O)[C@@H]1O)Oc1ccccc1` [Remdesivir], in series [4], the “patients who had died” value is given as 13.9%. In addition, the CC50 in series [5] was 29000 nM.

Turning to `CCN(CC)CCCC(C)Nc1ccnc2cc(Cl)ccc12` (centres unmarked) [Chloroquine], in series [2], the “Dissociation Constant” value is 5.0E−05, the SMINA score is −5.4 and the Vina score was −5.9.

Take `O=c1[nH]cnc2c1ncn2[C@H]1CC[C@@H](CO)O1` [ddI]: the EC50 in series [1] is 5.6 nM.

Take `CCOC(=O)c1c(CSc2ccccc2)n(C)c2cc(Br)c(O)c(CN(C)C)c12` [Umifenovir]: in series [2], the “Dissociation Constant” value was 2.2E−05, the SMINA score is listed as −6.0 and the Vina score is recorded as −6.4.

On to `CCN(CCO)CCCC(C)Nc1ccnc2cc(Cl)ccc12` (centres unmarked) [Hydroxychloroquine], for which, in series [2], the “Dissociation Constant” value is reported as 2.3E−05, the SMINA score is −6.4 and the Vina score is given as −6.0.

Turning to `CCOC(=O)C1=C[C@@H](OC(CC)CC)[C@H](NC(C)=O)[C@@H](N)C1` [Oseltamivir], in series [2], the “Dissociation Constant” value is 1.8E−05, the SMINA score is listed as −6.3 and the Vina score is recorded as −6.5.

Turning to `CCN(CC)CCCC(C)Nc1ccnc2cc(Cl)ccc12` (centres unmarked) [Chloroquine phosphate], the CC50 in series [5] is 40800 nM. Further, in series [6], the EC50 is 3450 nM.

Take `CC(C)c1nc(CN(C)C(=O)N[C@@H](CCN2CCOCC2)C(=O)N[C@H](CC[C@H](Cc2ccccc2)NC(=O)OCc2cncs2)Cc2ccccc2)cs1` [Cobicistat]: in series [2], the “Dissociation Constant” value is given as 5.7E−06, the SMINA score is −7.2 and the Vina score is −7.2.

As to `CC(C)c1nc(CN(C)C(=O)N[C@H](C(=O)N[C@@H](Cc2ccccc2)C[C@H](O)[C@H](Cc2ccccc2)NC(=O)OCc2cncs2)C(C)C)cs1` [Retinovir], in series [1], the EC50 stood at 2 nM.
